Test results taken from publication PMC10340464, “Identification of a Novel SSTR3 Full Agonist for the Treatment of Nonfunctioning Pituitary Adenomas” (Cancers, 2023).

Legend:
SSTR2 = target: T1, SSTR2 (Homo sapiens, UniProt P30874); test: SSTR2 phosphorylation, Western blot with phosphosite-specific antibodies, HEK293-transfected; format: cell-based; details: HEK293 stably expressing SSTR2, agonist 5 min 37 °C
T1 construct: expressed in transfected cells
Protocol: (§1) Western blot analysis was performed as previously described.
(§2) Next, the activation of human SSTRs induced by SSAs was tested by Western blot using phosphosite-specific antibodies directed against the following residues: S341/pS343 for SSTR2; S337/T341 for SSTR3; T333 for SSTR5 [31].
(§3) 4.1. Western blot analysis
(§4) Western blot analysis was performed as previously described.7–9 Brieﬂy, HEK293 cells stably expressing the human somatostatin receptors were seeded onto poly-L-lysine-coated 60 mm dishes and grown to 90 % confluency. […]
(§5) PierceTM HA epitope tag antibody beads (Thermo Scientific, Rockford, USA) were used to enrich HA-tagged somatostatin receptors or wheat germ lectin-agarose beads for no-tagged somatostatin receptors. To elute proteins from the beads, the samples were incubated in SDS sample buffer for 20 min at 60°C. Supernatants were separated from the beads, loaded on 8% SDS polyacrylamide gels and immunoblotted onto nitrocellulose membranes afterwards. After blocking, membranes were incubated with phosphorylation state-speciﬁc somatostatin receptor antibodies: pS337/pT341-SST3 (7TM0357A), […]
(§6) Antibodies GmbH, Jena, Germany) at a dilution of 1:1000 at 4°C overnight. Membranes were incubated in HRP-linked secondary antibody for 2 hours, followed by detection using a chemiluminescence system (90 mM p-coumaric-acid, 250 mM luminol, 30% […]
(§7) according to the manufacturer’s instructions.

κ (KOP) = test: Single-dose binding assay on κ opioid receptor; details: 10^−5 M
SSTR2-tGFP = test: Receptor internalization in U2OS-transfected cells (SSTR2-tGFP); format: cell-based, human; details: 3 h, high-content imaging, n = 3, method: percentage of activity relative to SST28 10^−6 M
Protocol: (§8) Compounds were tested at five concentrations (10^−5, 10^−6, 10^−7, 10^−8, 10^−9 M) in comparison to untreated cells.
(§9) SST agonists were added to U2OS recombinant cell lines in OptiMeM medium (Life technologies 51985-034, Monza, Italy) for 3 h (SSTR2, SSTR3) or 7 h (SSTR5) (n = 3). After formaldehyde fixation, nuclei were stained using DAPI (2 µg/mL), and the fluorescence was measured with BD Pathway 855 High-Content Bioimager from Becton Dickinson. The receptor internalization was calculated using AttoVision 1.6 Software. Approximately 500 cells per field were analyzed. […]
(§10) (Invitrogen, Carlsbad, CA). Stable transfectants were selected in the presence of 500 µg/ml G-418. […]
(§11) % picric acid in phosphate buﬀer (pH 6.9) for 30 minutes at room temperature (RT). […]
(§12) 3.2. U2OS human cell lines transfected with human receptors (SSTR2-tGFP, SSTR3-tGFP,
(§13) Compounds were tested at ﬁve d iﬀerent concentrations (10-5, 10-6, 10-7, 10-8, 10^-9 M) in comparison to untreated cells.
(§14) U2OS recombinant cell lines were obtained from Innoprot (Derio, Spain). […] Nuclei were stained using DAPI (2 μg/ml) and the ﬂuorescence was measured using a BD Pathway 855 High-Content Bioimager from Becton Dickinson. The receptor internalization was calculated using AttoVision Software. […]
(§15) Agonist activity of test compounds was calculated relatively to positive control

SSTR5-tGFP = test: Receptor internalization in U2OS-transfected cells (SSTR5-tGFP); format: cell-based, human; details: 7 h, high-content imaging, n = 3, method: percentage of activity relative to SST28 10^−6 M
Protocol: as §8, §9, §10, §11, §12, §13, §14, §15

[1] = test system: GHRH-stimulated GH release, primary cultures of rat anterior pituitary cells; test: Inhibition of GHRH-induced GH release in rat pituitary primary cell culture; format: cell-based; details: rat GHRH 3x10^-9 M, 3 h 37 °C, GH by ELISA
HA-SSTR2 = test: SSTR2 internalization in HEK293 cells, confocal microscopy; format: cell-based, human; details: 1 µM agonist, 30 min 37 °C
Protocol: (§16) HEK293 cells obtained from DSMZ (Braunschweig, Germany) were transfected with plasmid encoding […] HA-tagged SSTR2, SSTR3 or SSTR5 receptors.
(§17) HEK293 cells stably expressing HA-tagged hSSTR cultures were preincubated with anti-HA antibody for 2 h at 4 °C and then exposed to 1 µM agonist for 30 min at 37 °C before fixing and further labeling with Alexa488-conjugated secondary antibody. After mounting with Roti®-MountFluorCare DAPI, cultures were examined using a Zeiss LSM510 META laser scanning confocal microscope (Zeiss, Jena, Germany) (see Supplementary Materials for details).
(§18) GH produced by primary cultures was tested by ELISA assay using Rat Growth Hormone Biotrak Enzyme immunoassay Mouse/Rat Growth ELISA (DSL-10-72100) or Rat/Mouse Growth Hormone ELISA (Millipore EZRMGH-45K) diluting supernatants 1:20, according to manufacturer’s instructions. […]
as §14, §15

µ (MOP) (h) = test: Single-dose binding assay on µ opioid receptor; design: species or system human; details: 10^−5 M
HA-tagged SSTR5 = test: SSTR5 internalization in HEK293 cells, confocal microscopy; format: cell-based, human; details: 1 µM agonist, 30 min 37 °C
Protocol: as §16, §17, §18, §14, §15

NOP (ORL1) (h) = test: Single-dose binding assay on NOP receptor; design: species or system human; details: 10^−5 M
HA-SSTR3 = test: SSTR3 phosphorylation, Western blot with phosphosite-specific antibodies, HEK293-transfected; format: cell-based, human; design: key: + = very low activity; ++ = low activity; +++ = high activity; ++++ = very high activity; details: HEK293 stably expressing HA-SSTR3, agonist 5 min 37 °C
Protocol: as §1, §2, §3, §4, §5, §6, §7

[2] = species, matrix, method and reference not given; cited from earlier work

T1 sequence (P30874 whole entry): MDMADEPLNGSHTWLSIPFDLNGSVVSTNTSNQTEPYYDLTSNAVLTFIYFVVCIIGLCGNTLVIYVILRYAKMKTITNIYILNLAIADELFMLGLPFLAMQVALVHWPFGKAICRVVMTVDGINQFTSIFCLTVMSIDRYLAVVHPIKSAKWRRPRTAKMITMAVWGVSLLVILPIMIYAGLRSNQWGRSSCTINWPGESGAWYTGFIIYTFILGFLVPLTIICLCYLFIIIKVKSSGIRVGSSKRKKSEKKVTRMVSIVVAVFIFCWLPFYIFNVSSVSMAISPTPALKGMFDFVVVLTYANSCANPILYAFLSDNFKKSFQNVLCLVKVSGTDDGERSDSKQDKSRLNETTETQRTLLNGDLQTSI

COc1cc2cccc(OC)c2cc1C[C@H]1NC(=O)[C@H](Cc2ccc(O)cc2)NC(=O)[C@@H]2C[C@@H](OC(=O)NCCN)CN2C(=O)[C@H](Cc2ccccc2)NC(=O)[C@H](Cc2ccc(OCc3ccccc3)cc2)NC(=O)[C@H](CCCCN)NC1=O [ITF2984, Cyclo[Tyr(Bn)-Phe-Pro(4-OCONH(CH2)2NH2)-Tyr-3,8-diMeONal-Lys]]
Phosphorylation SSTR sites (HEK293-transfected): SSTR2—PS341/S343 (SSTR2): ++
Percentage of inhibition of opioid receptor κ (KOP) (agonist) (κ (KOP)): 97%
Receptor internalization in U2OS-transfected cells, SSTR2, at 10^−5 M (SSTR2-tGFP; 10^−5 M): 37.3
Receptor internalization in U2OS-transfected cells, SSTR2, at 10^−6 M (value in brackets) (SSTR2-tGFP; 10^−6 M): 35.9
Receptor internalization in U2OS-transfected cells, SSTR5, at 10^−5 M (SSTR5-tGFP; 10^−5 M): 34.6
Receptor internalization in U2OS-transfected cells, SSTR5, at 10^−6 M (value in brackets) (SSTR5-tGFP; 10^−6 M): 42.0
GH release (inhibition ≅ 1 nM) [1]: 50%
internalization of SSTR2 in transfected HEK293 cells (HA-SSTR2): partial internalization
Percentage of inhibition of opioid receptor µ (MOP) (h) (agonist) (µ (MOP) (h)): 97%
internalization of SSTR5 in transfected HEK293 cells (HA-tagged SSTR5): partial internalization
Percentage of inhibition of opioid receptor NOP (ORL1) (h) (agonist) (NOP (ORL1) (h)): 61%
Phosphorylation SSTR sites (HEK293-transfected): SSTR3—PS337/T341 (HA-SSTR3): ++++
Phosphorylation SSTR sites (HEK293-transfected): SSTR3—PT438 (HA-SSTR3): ++++
Half-time life [2]: 18 h
